Experimental data reported in ChEMBL document CHEMBL3745710, “Synthesis, antibacterial and anti-MRSA activity, in vivo toxicity and a structure-activity relationship study of a quinoline thiourea” (Bioorg Med Chem Lett, 2016).
≈ marks a conversion by molar mass, not a printed value. Calls of active or inactive are those of the source. The calls are words filed in the database; no cut-off is given here.

Assays:
[1] = Toxicity in sixth development stage of Galleria mellonella larvae assessed as survival rate at 100 ug/ml after 48 hrs; format: organism-based; details: in vivo
Staphylococcus aureus [2] = test: Antibacterial activity against Staphylococcus aureus NCIMB 12702 after 24 hrs by serial dilution method; format: functional; details: Staphylococcus aureus, NCIMB 12702, 24 h
[3] = Toxicity in sixth development stage of Galleria mellonella larvae assessed as survival rate at 1 ug/ml after 48 hrs; format: organism-based; details: in vivo
[4] = Toxicity in sixth development stage of Galleria mellonella larvae assessed as survival rate at 100 ug/ml after 24 hrs; format: organism-based; details: in vivo
[5] = Toxicity in sixth development stage of Galleria mellonella larvae assessed as survival rate at 1 ug/ml after 72 hrs; format: organism-based; details: in vivo
[6] = Toxicity in sixth development stage of Galleria mellonella larvae assessed as survival rate at 1 ug/ml after 24 hrs; format: organism-based; details: in vivo
Galleria mellonella = test: Toxicity in sixth development stage of Galleria mellonella larvae assessed as larvae pupation at 1 to 1000 ug/ml after 7 days relative to control; format: organism-based; details: in vivo, 168 h
[7] = Toxicity in sixth development stage of Galleria mellonella larvae assessed as survival rate at 100 ug/ml after 72 hrs; format: organism-based; details: in vivo
[8] = Toxicity in sixth development stage of Galleria mellonella larvae assessed as survival rate at 1000 ug/ml after 24 hrs; format: organism-based; details: in vivo
[9] = Toxicity in sixth development stage of Galleria mellonella larvae assessed as survival rate at 1000 ug/ml after 48 hrs; format: organism-based; details: in vivo
[10] = Toxicity in sixth development stage of Galleria mellonella larvae assessed as survival rate at 10 ug/ml after 48 hrs; format: organism-based; details: in vivo
Escherichia coli = test: Antibacterial activity against Escherichia coli NCIMB 9485 after 24 hrs by serial dilution method; format: functional; details: NCIMB 9485, 24 h
[11] = Toxicity in sixth development stage of Galleria mellonella larvae assessed as survival rate at 10 ug/ml after 72 hrs; format: organism-based; details: in vivo
[12] = Toxicity in sixth development stage of Galleria mellonella larvae assessed as survival rate at 1000 ug/ml after 72 hrs; format: organism-based; details: in vivo
Pseudomonas aeruginosa = test: Antibacterial activity against Pseudomonas aeruginosa ATCC 10145 after 24 hrs by serial dilution method; format: functional, organism-based
[13] = Toxicity in sixth development stage of Galleria mellonella larvae assessed as survival rate at 50 ug/ml after 48 hrs; format: organism-based; details: in vivo
[14] = Toxicity in sixth development stage of Galleria mellonella larvae assessed as survival rate at 50 ug/ml after 24 hrs; format: organism-based; details: in vivo
[15] = Toxicity in sixth development stage of Galleria mellonella larvae assessed as survival rate at 50 ug/ml after 72 hrs; format: organism-based; details: in vivo
[16] = Toxicity in sixth development stage of Galleria mellonella larvae assessed as survival rate at 10 ug/ml after 24 hrs; format: organism-based; details: in vivo
Staphylococcus aureus [17] = test: Antibacterial activity against methicillin-resistant Staphylococcus aureus after 24 hrs by serial dilution method; format: functional

| Structure (SMILES) | survival at 48 h [1] [%] | MIC50 (Staphylococcus aureus [2]) [µM] | MIC90 (Staphylococcus aureus [2]) [µM] | survival at 48 h [3] [%] | survival at 24 h [4] [%] | survival at 72 h [5] [%] | survival at 24 h [6] [%] | Activity (Galleria mellonella) | survival at 72 h [7] [%] | survival at 24 h [8] [%] | survival at 48 h [9] [%] | survival at 48 h [10] [%] | MIC50 (Escherichia coli) [µM] | MIC90 (Escherichia coli) [µM] | survival at 72 h [11] [%] | survival at 72 h [12] [%] | MIC (Pseudomonas aeruginosa) | survival at 48 h [13] [%] | survival at 24 h [14] [%] | survival at 72 h [15] [%] | further results |
| --- | --- | --- | --- | --- | --- | --- | --- | --- | --- | --- | --- | --- | --- | --- | --- | --- | --- | --- | --- | --- | --- |
| C=C[C@H]1CN2CC[C@H]1C[C@H]2[C@@H](NC(=S)Nc1cc(C(F)(F)F)cc(C(F)(F)F)c1)c1ccnc2ccccc12 | 100 | 8.32 (≈ 4.7 µg/mL) | 16.6 (≈ 9.38 µg/mL) | 100 | 100 | 100 | 100 | Non-toxic | 100 | 100 | 100 | 100 | 5.54 (≈ 3.13 µg/mL) | 8.32 (≈ 4.7 µg/mL) | 100 | 100 | inactive | 100 | 100 | 100 | survival at 24 h [16]: 100%; MIC50 (Staphylococcus aureus [17]): 10.8 µM (≈ 6.1 µg/mL); MIC90 (Staphylococcus aureus [17]): 18.1 µM (≈ 10.2 µg/mL) |
| CCC1CN2CCC1C[C@@H]2[C@@H](Oc1nnc(O[C@@H](c2ccnc3ccc(OC)cc23)[C@H]2CC3CCN2CC3CC)c2ccccc12)c1ccnc2ccc(OC)cc12 (some centres undefined) | – | – | 189 (≈ 147 µg/mL) | – | – | – | – | – | – | – | – | – | – | > 200 | – | – | inactive | – | – | – | – |
| C=C[C@H]1CN2CC[C@H]1C[C@H]2[C@@H](N)c1ccnc2ccc(OC)cc12 | – | > 309 | > 309 | – | – | – | – | – | – | – | – | – | > 309 | 309 (≈ 100 µg/mL) | – | – | inactive | – | – | – | – |
| CCC1CN2CCC1CC2[C@@H](OC(=O)c1ccc(Cl)cc1)c1ccnc2ccc(OC)cc12 (some centres undefined) | – | – | 79.4 (≈ 36.9 µg/mL) | – | – | – | – | – | – | – | – | – | – | > 200 | – | – | inactive | – | – | – | – |
| FC(F)(F)c1cc(NC(=S)Nc2ccccc2)cc(C(F)(F)F)c1 | 100 | > 275 | > 275 | 100 | 100 | 100 | 100 | Non-toxic | 100 | 100 | 100 | 100 | 51.5 (≈ 18.8 µg/mL) | 206 (≈ 75.1 µg/mL) | 100 | 100 | inactive | 100 | 100 | 100 | MIC80 (Staphylococcus aureus [2]): > 275 µM; MIC80 (Escherichia coli): 103 µM (≈ 37.5 µg/mL); survival at 24 h [16]: 100% |
| C=C[C@H]1CN2CC[C@H]1C[C@H]2[C@@H](NC(=S)Nc1ccccc1)c1ccnc2ccc(OC)cc12 | 100 | 54.6 (≈ 25 µg/mL) | 164 (≈ 75.1 µg/mL) | 100 | 100 | 100 | 100 | Non-toxic | 100 | 100 | 100 | 100 | 40.9 (≈ 18.8 µg/mL) | 81.8 (≈ 37.5 µg/mL) | 100 | 100 | inactive | 100 | 100 | 100 | survival at 24 h [16]: 100% |
| C=CC1CN2CCC1CC2[C@H](OCc1ccccc1)c1ccnc2ccc(OC)cc12 (some centres undefined) | – | – | > 200 | – | – | – | – | – | – | – | – | – | – | > 200 | – | – | inactive | – | – | – | – |
| FC(F)(F)c1cc(NC(=S)NC2CCCCC2)cc(C(F)(F)F)c1 | – | 135 (≈ 50 µg/mL) | > 270 | – | – | – | – | – | – | – | – | – | 101 (≈ 37.5 µg/mL) | > 270 | – | – | inactive | – | – | – | – |
| CCC1CN2CCC1CC2[C@@H](Oc1cc2ccccc2c2ccccc12)c1ccnc2ccc(OC)cc12 (some centres undefined) | – | – | > 200 | – | – | – | – | – | – | – | – | – | – | > 200 | – | – | inactive | – | – | – | – |
| C=C[C@H]1CN2CC[C@H]1C[C@H]2CNC(=S)Nc1cc(C(F)(F)F)cc(C(F)(F)F)c1 | 100 | 42.9 (≈ 18.8 µg/mL) | 85.8 (≈ 37.5 µg/mL) | 100 | 100 | 100 | 100 | Non-toxic | 100 | 100 | 100 | 100 | 42.9 (≈ 18.8 µg/mL) | 85.8 (≈ 37.5 µg/mL) | 100 | 100 | inactive | 100 | 100 | 100 | MIC80 (Staphylococcus aureus [2]): 85.8 µM (≈ 37.5 µg/mL); MIC80 (Escherichia coli): 85.8 µM (≈ 37.5 µg/mL); survival at 24 h [16]: 100%; MIC50 (Staphylococcus aureus [17]): 20.7 µM (≈ 9.07 µg/mL); MIC90 (Staphylococcus aureus [17]): 31.4 µM (≈ 13.8 µg/mL) |
| CCN(CC)CCNC(=S)Nc1cc(C(F)(F)F)cc(C(F)(F)F)c1 | 100 | 96.9 (≈ 37.5 µg/mL) | 194 (≈ 75.1 µg/mL) | 100 | 100 | 100 | 100 | Non-toxic | 100 | 100 | 100 | 100 | 96.9 (≈ 37.5 µg/mL) | 194 (≈ 75.1 µg/mL) | 100 | 100 | inactive | 100 | 100 | 100 | MIC80 (Staphylococcus aureus [2]): 129 µM (≈ 50 µg/mL); MIC80 (Escherichia coli): 129 µM (≈ 50 µg/mL); survival at 24 h [16]: 100%; MIC50 (Staphylococcus aureus [17]): 13.5 µM (≈ 5.22 µg/mL); MIC90 (Staphylococcus aureus [17]): 23.5 µM (≈ 9.11 µg/mL) |
